{
  "source": "patent US20080274208A1",
  "about": "“Water treatment containing DBNPA for use in sanitizing recreational water” (priority 2007, published 2008)",
  "key": {"[1]": {"tested_on": "eight species of bacteria typically found in swimming pool water", "assay": "Model swimming pool system: viable bacteria by agar plate counts (CLED agar)", "type": "cell-based, Alcaligenes, Chryseobacterium and Sphingomonas", "details": "Table 1; upon exceeding turbidity threshold (or at test end); DBNPA 2 ppm daily with/without oxidizer; PHMB 6 ppm", "description": "(§1) The synthetic swimming pool water samples dosed with combinations of DBNPA, hydrogen peroxide, potassium monopersulfate and/or DDAC were compared to the performance of the commercially available Baquacil® swimming pool chemical treatment system (available commercially from Arch Chemicals, Inc., Norwalk, Conn.). […] PHMB), by addition of daily or weekly doses of the biocide. Hydrogen peroxide is added monthly at a concentration of 27.5 ppm. The samples were challenged on a daily basis with eight species of bacteria and four species of fungi typically found in swimming pool water. These microorganisms include species of the fungi Paecilomyces and Trichoderma, and species of the bacteria Alcaligenes, Chryseobacterium and Sphingomonas. Each inoculation represents a total addition of 0.8×10^6 microorganisms per model apparatus. In addition, 5 ml of synthetic bather load is added to the system on a daily basis, as a nutrient source for the microorganisms present in the system. The bather load consists of carbon, nitrogen and macro/micro nutrient sources such as urea, albumin, creatinine, lactic acid, uric acid, glucuronic acid, sodium chloride, sodium sulfate, ammonium chloride, sodium bicarbonate, potassium phosphate potassium sulfate. The total number of viable bacteria and fungi present in each sample was determined weekly by conducting agar plate counts. […]"}, "[2]": {"tested_on": "eight species of bacteria and four species of fungi typically found in swimming pool water", "assay": "Model swimming pool recirculating sand filter system: water clarity (turbidity) under daily microbial challenge", "type": "cell-based", "details": "Table 1; synthetic pool water 80-90° F, daily inoculation and bather load; DBNPA 2 ppm daily; H2O2 27.5 ppm start, 7 ppm weekly; potassium monopersulfate 12 ppm initial and weekly; PHMB 6 ppm; 88 day test", "experimental": "The purpose of this experiment is to evaluate the robustness or the ability of single or combinations of biocides (plus additionally any other permutations of oxidizers and/or adjuvants) to prevent inoculated microorganisms from establishing colonies in the water and sand filter media, thus preventing bio-fouling of the system.\n800 ml of synthetic swimming pool water (water containing calcium chloride dihydrate and sodium hydrogen carbonate solution at neutral pH) was pumped through a body of swimming pool filter sand by means of a peristaltic pump. The water temperature of each system was maintained in the range of 80-90° F. The biocide 2,2-dibromo-3-nitrilopropionamide (DBNPA) was added daily at a concentration of 2 ppm. When required, oxidizer hydrogen peroxide was added at a concentration of 27.5 ppm at the start of experiment, and 7 ppm weekly thereafter, and the loss of hydrogen peroxide in each system is monitored by calorimetric assay. […]\nModel water turbidity was measured on a daily basis) using a Hach 2100P turbidimeter to measure water sample nephelometric turbidity units (NTUs). […]\nThe performance of the candidate treatment regimens was determined by the number of days the water clarity was maintained below 1.0 NTU (Nephelometric Turbidity Units). […]"}, "[3]": {"tested_on": "four species of fungi typically found in swimming pool water", "assay": "Model swimming pool system: viable fungi by agar plate counts (Sabaroud-Dextrose agar)", "type": "cell-based, Paecilomyces and Trichoderma", "details": "Table 1; upon exceeding turbidity threshold (or at test end); DBNPA 2 ppm daily with/without oxidizer; PHMB 6 ppm", "description": "as §1"}},
  "data": [
    {"smiles": "N#CC(Br)(Br)C(N)=O", "note": "[DBNPA, 2,2-dibromo-3-nitrilopropionamide]", "values": [
      {"measurement": "Bacterial Counts at Clarity of 1.0 NTU or above", "setting": "[1]", "result": "1.39 × 10^5 CFU/ml"},
      {"measurement": "Number of Days of Clarity below 1.0 NTU", "setting": "[2]", "result": 59, "unit": "days"},
      {"measurement": "Fungal Counts at Clarity of 1.0 NTU or above", "setting": "[3]", "result": "5 × 10^0 CFU/ml"}
    ]}
  ]
}
